Data published in the kinase profiling compilation of Christmann-Franck et al. (2016).
Each block holds one compound with its values, some of them ahead of it.

How the values were obtained:
Test in all cases: radiometric filter-binding kinase assay
[1] = molecular target: PRKCA (human) (UniProt P17252); conditions: ATP 100 µM
[2] = molecular target: CHEK1 (human) (UniProt O14757); conditions: ATP 100 µM
[3] = test system: MAP2K1 (rabbit); conditions: ATP 100 µM, accession and sequence are those of the human protein
[4] = molecular target: MAPKAPK2 (human) (UniProt P49137); conditions: ATP 100 µM
[5] = test system: ROCK2 (rat); conditions: ATP 100 µM, accession and sequence are those of the human protein
[6] = test system: MAPK1 (mouse); conditions: ATP 100 µM, accession and sequence are those of the human protein
[7] = test system: SGK1 (human), O00141 [S422D]; conditions: ATP 100 µM
[8] = molecular target: MAPK12 (human) (UniProt P53778); conditions: ATP 100 µM
[9] = test system: PHKG1 or PHKG2 (rabbit); conditions: ATP 100 µM, accession and sequence are those of the human protein
[10] = molecular target: MAPK11 (human) (UniProt Q15759); conditions: ATP 100 µM
[11] = molecular target: MAPKAPK5 (human) (UniProt Q8IW41); conditions: ATP 100 µM
[12] = molecular target: CSK (human) (UniProt P41240); conditions: ATP 100 µM
[13] = molecular target: MAPK14 (human) (UniProt Q16539); conditions: ATP 100 µM
[14] = molecular target: MYLK (human) (UniProt Q15746); conditions: ATP 100 µM
[15] = test system: DYRK1A (rat); conditions: ATP 100 µM, accession and sequence are those of the human protein
[16] = molecular target: AKT1 (human) (UniProt P31749); conditions: ATP 100 µM
[17] = molecular target: MAPK8 (human) (UniProt P45983); conditions: ATP 100 µM
[18] = molecular target: RPS6KA5 KD1 KD2 (human) (UniProt O75582); conditions: ATP 100 µM
[19] = molecular target: MYLK2 (human) (UniProt Q9H1R3); conditions: ATP 100 µM
[20] = test system: RPS6KA1 (rat); conditions: ATP 100 µM, accession and sequence are those of the human protein
[21] = molecular target: MAPK13 (human) (UniProt O15264); conditions: ATP 100 µM
[22] = test system: PRKACA or PRKACB (cow); conditions: accession and sequence are those of the human protein
[23] = molecular target: PDPK1 (human) (UniProt O15530); conditions: ATP 100 µM
[24] = test system: CSNK1A1 (rat); conditions: ATP 100 µM, accession and sequence are those of the human protein
[25] = molecular target: CDK2 CCNA2 (human) (UniProt P24941+P20248); conditions: ATP 100 µM
[26] = test system: PRKAA1 or PRKAA2 (rat); conditions: ATP 100 µM, accession and sequence are those of the human protein
[27] = molecular target: CSNK2A1 or CSNK2A2 (human) (UniProt P19784+P68400); conditions: ATP 100 µM
[28] = molecular target: GSK3B (human) (UniProt P49841); conditions: ATP 100 µM
[29] = molecular target: LCK (human) (UniProt P06239); conditions: ATP 100 µM
[30] = test system: RPS6KB1 (human), P23443 [T412E]; conditions: ATP 100 µM
RPS6KB1 (human), P23443 [T412E], sequence (P23443 whole entry T412E, looked up): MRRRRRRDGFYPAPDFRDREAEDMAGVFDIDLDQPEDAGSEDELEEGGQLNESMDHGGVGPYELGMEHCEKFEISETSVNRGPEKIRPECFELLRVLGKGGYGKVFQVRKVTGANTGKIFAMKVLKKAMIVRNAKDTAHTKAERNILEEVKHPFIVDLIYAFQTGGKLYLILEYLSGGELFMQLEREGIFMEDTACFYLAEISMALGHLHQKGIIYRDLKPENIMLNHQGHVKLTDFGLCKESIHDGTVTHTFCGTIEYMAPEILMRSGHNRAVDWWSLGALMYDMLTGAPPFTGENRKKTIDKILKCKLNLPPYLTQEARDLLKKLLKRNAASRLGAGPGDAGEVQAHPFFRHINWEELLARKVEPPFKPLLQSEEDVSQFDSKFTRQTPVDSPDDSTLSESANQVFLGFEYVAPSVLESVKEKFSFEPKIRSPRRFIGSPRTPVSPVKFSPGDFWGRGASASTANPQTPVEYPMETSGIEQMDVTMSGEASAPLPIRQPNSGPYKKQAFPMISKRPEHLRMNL

MAPK8 (human), sequence (P45983 whole entry, looked up): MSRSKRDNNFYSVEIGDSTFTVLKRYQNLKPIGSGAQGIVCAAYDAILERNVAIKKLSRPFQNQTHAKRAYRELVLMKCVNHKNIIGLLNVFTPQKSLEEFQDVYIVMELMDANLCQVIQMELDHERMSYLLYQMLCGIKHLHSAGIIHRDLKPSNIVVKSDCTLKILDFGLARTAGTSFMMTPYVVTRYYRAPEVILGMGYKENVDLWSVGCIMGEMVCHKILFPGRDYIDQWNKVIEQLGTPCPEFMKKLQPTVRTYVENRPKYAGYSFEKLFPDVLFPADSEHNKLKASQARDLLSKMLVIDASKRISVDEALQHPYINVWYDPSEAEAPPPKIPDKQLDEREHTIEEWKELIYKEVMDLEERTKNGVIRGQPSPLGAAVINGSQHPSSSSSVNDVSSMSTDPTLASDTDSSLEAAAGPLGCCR
PDPK1 (human), sequence (O15530 whole entry, looked up): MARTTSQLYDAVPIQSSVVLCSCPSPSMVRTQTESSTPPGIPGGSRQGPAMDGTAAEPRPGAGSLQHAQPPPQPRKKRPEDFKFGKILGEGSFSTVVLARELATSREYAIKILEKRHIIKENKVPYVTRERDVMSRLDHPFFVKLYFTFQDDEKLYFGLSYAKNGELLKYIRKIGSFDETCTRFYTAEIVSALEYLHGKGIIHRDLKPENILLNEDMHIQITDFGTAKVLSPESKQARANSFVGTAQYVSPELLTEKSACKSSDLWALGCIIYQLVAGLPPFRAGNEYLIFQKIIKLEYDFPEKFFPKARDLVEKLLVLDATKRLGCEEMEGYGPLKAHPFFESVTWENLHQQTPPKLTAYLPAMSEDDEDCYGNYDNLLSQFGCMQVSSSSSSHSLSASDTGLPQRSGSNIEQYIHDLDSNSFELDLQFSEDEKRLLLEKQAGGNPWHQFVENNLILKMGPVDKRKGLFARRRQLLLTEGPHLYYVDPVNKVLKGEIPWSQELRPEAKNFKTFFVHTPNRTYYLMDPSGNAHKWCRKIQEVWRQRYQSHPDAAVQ
CDK2 CCNA2 (human), sequence (P20248 whole entry, looked up, other chains not shown): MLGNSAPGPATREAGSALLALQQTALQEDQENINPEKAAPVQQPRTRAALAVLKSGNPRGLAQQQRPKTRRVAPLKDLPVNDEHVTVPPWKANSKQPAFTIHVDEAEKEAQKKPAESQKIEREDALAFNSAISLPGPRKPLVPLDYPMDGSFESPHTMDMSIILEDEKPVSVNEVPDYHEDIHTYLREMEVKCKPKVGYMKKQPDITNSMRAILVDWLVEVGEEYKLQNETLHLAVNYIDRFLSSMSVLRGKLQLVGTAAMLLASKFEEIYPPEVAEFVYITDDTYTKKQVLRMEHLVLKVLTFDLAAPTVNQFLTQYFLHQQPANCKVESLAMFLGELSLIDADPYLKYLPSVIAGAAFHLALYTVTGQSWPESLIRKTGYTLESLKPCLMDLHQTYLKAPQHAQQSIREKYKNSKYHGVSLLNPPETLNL
MAPKAPK2 (human), sequence (P49137 whole entry, looked up): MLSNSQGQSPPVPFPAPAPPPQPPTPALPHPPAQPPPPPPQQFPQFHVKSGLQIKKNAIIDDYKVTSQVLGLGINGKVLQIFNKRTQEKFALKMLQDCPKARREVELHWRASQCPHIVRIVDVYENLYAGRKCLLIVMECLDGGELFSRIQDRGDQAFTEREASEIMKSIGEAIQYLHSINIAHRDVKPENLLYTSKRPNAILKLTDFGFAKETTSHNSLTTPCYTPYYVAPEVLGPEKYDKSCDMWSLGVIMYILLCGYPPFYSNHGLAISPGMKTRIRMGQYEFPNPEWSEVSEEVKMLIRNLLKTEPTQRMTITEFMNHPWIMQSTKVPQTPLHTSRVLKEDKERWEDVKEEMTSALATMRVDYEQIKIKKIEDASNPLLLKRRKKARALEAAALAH
MAPK13 (human), sequence (O15264 whole entry, looked up): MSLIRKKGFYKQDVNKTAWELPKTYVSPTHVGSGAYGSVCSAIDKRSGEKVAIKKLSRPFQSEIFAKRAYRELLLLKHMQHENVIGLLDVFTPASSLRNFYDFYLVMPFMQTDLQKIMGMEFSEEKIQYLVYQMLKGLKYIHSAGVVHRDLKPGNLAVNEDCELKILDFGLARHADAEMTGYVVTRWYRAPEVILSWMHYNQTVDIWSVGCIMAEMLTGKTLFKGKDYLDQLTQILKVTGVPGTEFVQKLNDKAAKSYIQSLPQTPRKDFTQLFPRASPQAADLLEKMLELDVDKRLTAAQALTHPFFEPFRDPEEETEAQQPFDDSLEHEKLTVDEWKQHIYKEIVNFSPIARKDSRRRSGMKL
MAPK12 (human), sequence (P53778 whole entry, looked up): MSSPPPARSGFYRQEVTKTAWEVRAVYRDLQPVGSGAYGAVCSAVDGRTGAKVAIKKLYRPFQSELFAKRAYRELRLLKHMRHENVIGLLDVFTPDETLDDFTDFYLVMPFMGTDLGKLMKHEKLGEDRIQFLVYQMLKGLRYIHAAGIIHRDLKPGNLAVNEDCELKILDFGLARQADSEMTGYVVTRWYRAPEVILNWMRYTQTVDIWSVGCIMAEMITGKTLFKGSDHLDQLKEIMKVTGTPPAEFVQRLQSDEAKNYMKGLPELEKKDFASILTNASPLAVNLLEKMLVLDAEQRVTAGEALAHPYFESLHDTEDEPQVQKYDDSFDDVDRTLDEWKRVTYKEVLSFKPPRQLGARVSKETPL
RPS6KA5 KD1 KD2 (human), sequence (O75582 whole entry, looked up): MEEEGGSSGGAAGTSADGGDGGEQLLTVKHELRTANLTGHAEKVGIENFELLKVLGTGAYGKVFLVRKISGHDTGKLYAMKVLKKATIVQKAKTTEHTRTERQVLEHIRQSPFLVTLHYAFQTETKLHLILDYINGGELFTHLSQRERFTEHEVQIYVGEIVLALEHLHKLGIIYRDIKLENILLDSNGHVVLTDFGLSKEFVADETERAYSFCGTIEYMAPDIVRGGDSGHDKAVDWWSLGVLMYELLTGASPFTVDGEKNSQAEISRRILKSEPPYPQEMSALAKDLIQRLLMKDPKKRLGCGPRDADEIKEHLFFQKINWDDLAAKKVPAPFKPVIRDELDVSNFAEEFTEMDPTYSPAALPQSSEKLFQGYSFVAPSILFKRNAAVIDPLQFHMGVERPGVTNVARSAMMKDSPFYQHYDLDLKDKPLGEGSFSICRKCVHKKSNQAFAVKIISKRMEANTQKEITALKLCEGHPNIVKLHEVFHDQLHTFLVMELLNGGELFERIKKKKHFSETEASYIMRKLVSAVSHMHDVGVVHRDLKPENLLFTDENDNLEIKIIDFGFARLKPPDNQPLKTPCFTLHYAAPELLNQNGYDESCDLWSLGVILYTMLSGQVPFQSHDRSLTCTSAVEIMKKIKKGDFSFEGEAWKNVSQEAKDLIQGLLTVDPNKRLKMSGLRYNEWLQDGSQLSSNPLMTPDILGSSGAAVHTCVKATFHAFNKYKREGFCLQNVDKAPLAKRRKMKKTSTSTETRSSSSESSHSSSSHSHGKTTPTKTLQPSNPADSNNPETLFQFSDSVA
GSK3B (human), sequence (P49841 whole entry, looked up): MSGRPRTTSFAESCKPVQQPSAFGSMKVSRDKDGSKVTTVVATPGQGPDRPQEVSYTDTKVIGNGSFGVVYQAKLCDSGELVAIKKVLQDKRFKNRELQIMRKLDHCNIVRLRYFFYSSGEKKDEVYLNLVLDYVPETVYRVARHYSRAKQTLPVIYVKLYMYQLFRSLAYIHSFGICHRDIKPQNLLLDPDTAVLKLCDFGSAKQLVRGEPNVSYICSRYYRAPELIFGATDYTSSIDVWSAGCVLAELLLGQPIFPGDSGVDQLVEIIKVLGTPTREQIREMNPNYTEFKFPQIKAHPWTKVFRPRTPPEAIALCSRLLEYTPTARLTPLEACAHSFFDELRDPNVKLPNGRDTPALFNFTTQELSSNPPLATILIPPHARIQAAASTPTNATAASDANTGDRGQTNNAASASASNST
SGK1 (human), O00141 [S422D], sequence (O00141 whole entry S422D, looked up): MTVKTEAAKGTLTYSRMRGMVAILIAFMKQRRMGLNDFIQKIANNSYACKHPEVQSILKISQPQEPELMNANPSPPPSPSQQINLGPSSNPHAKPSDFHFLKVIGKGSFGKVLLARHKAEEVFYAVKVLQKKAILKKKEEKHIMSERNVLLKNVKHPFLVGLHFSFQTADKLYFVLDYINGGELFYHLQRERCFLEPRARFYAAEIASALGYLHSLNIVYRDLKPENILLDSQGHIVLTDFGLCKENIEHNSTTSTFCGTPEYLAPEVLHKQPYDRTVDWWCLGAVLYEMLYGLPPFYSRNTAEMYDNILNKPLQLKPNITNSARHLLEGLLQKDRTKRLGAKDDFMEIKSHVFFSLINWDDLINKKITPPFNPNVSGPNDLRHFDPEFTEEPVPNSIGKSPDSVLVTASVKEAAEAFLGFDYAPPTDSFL

residual activity ([1]; compound 100.0 µM): 80% | residual activity ([2]; compound 100.0 µM): 103% | residual activity ([3]; compound 100.0 µM): 95% | residual activity ([4]; compound 100.0 µM): 106% | residual activity ([5]; compound 100.0 µM): 23% | residual activity ([6]; compound 100.0 µM): 101% | residual activity ([7]; compound 100.0 µM): 84% | residual activity ([8]; compound 100.0 µM): 98% | residual activity ([9]; compound 100.0 µM): 79% | residual activity ([10]; compound 100.0 µM): 98% | residual activity ([11]; compound 100.0 µM): 91% | residual activity ([12]; compound 100.0 µM): 96% | residual activity ([13]; compound 100.0 µM): 94% | residual activity ([14]; compound 100.0 µM): 25% | residual activity ([15]; compound 100.0 µM): 38% | residual activity ([16]; compound 100.0 µM): 76% | residual activity ([17]; compound 100.0 µM): 102% | residual activity ([18]; compound 100.0 µM): 14% | residual activity ([19]; compound 100.0 µM): 54% | residual activity ([20]; compound 100.0 µM): 44% | residual activity ([21]; compound 100.0 µM): 86% | residual activity ([22]; compound 100.0 µM): 71% | residual activity ([23]; compound 100.0 µM): 113% | residual activity ([24]; compound 100.0 µM): 103% | residual activity ([25]; compound 100.0 µM): 75% | residual activity ([26]; compound 100.0 µM): 61% | residual activity ([27]; compound 100.0 µM): 69% | residual activity ([28]; compound 100.0 µM): 107% | residual activity ([29]; compound 100.0 µM): 116% | residual activity ([30]; compound 100.0 µM): 27%
Structure (SMILES): O=S(=O)(c1cccc2c(Cl)cccc12)N1CCCNCC1

residual activity ([1]; compound 10.0 µM): 90% | residual activity ([2]; compound 10.0 µM): 66% | residual activity ([3]; compound 10.0 µM): 82% | residual activity ([4]; compound 10.0 µM): 96% | residual activity ([5]; compound 10.0 µM): 43% | residual activity ([6]; compound 10.0 µM): 102% | residual activity ([7]; compound 10.0 µM): 70% | residual activity ([8]; compound 10.0 µM): 75% | residual activity ([9]; compound 10.0 µM): 21% | residual activity ([10]; compound 10.0 µM): 90% | residual activity ([11]; compound 10.0 µM): 95% | residual activity ([12]; compound 10.0 µM): 89% | residual activity ([13]; compound 10.0 µM): 70% | residual activity ([15]; compound 10.0 µM): 23% | residual activity ([16]; compound 10.0 µM): 100% | residual activity ([17]; compound 10.0 µM): 103% | residual activity ([18]; compound 10.0 µM): 94% | residual activity ([20]; compound 10.0 µM): 27% | residual activity ([21]; compound 10.0 µM): 78% | residual activity ([22]; compound 10.0 µM): 73% | residual activity ([23]; compound 10.0 µM): 94% | residual activity ([24]; compound 10.0 µM): 66% | residual activity ([25]; compound 10.0 µM): 54% | residual activity ([26]; compound 10.0 µM): 14% | residual activity ([27]; compound 10.0 µM): 93% | residual activity ([28]; compound 10.0 µM): 83% | residual activity ([29]; compound 10.0 µM): 8% | residual activity ([30]; compound 10.0 µM): 71%
Structure (SMILES): CN(C)S(=O)(=O)c1ccc2c(c1)/C(=C/c1cc3c([nH]1)CCCC3)C(=O)N2

residual activity ([1]; compound 20.0 µM): 85% | residual activity ([2]; compound 20.0 µM): 94% | residual activity ([3]; compound 20.0 µM): 102% | residual activity ([4]; compound 20.0 µM): 93% | residual activity ([5]; compound 20.0 µM): 74% | residual activity ([6]; compound 20.0 µM): 85% | residual activity ([7]; compound 20.0 µM): 101% | residual activity ([8]; compound 20.0 µM): 95% | residual activity ([9]; compound 20.0 µM): 85% | residual activity ([10]; compound 20.0 µM): 89% | residual activity ([11]; compound 20.0 µM): 78% | residual activity ([12]; compound 20.0 µM): 94% | residual activity ([13]; compound 20.0 µM): 100% | residual activity ([14]; compound 20.0 µM): 10% | residual activity ([15]; compound 20.0 µM): 66% | residual activity ([16]; compound 20.0 µM): 88% | residual activity ([17]; compound 20.0 µM): 97% | residual activity ([18]; compound 20.0 µM): 59% | residual activity ([19]; compound 20.0 µM): 63% | residual activity ([20]; compound 20.0 µM): 99% | residual activity ([21]; compound 20.0 µM): 75% | residual activity ([22]; compound 20.0 µM): 85% | residual activity ([23]; compound 20.0 µM): 107% | residual activity ([24]; compound 20.0 µM): 106% | residual activity ([25]; compound 20.0 µM): 73% | residual activity ([26]; compound 20.0 µM): 82% | residual activity ([27]; compound 20.0 µM): 83% | residual activity ([28]; compound 20.0 µM): 107% | residual activity ([29]; compound 20.0 µM): 87% | residual activity ([30]; compound 20.0 µM): 74%
Structure (SMILES): O=S(=O)(c1cccc2c(I)cccc12)N1CCCNCC1
